Data on 18 molecules can be found in patent US20260159512A1, “BCAT2 INHIBITORS” (AGIOS PHARMACEUTICALS, INC., priority 2021, published 2026).

What all share (settings): average where tested multiple times
Experiment [1] has as its target T1, BCAT2 (Homo sapiens, UniProt O15382).
T1 sequence (O15382 28-392): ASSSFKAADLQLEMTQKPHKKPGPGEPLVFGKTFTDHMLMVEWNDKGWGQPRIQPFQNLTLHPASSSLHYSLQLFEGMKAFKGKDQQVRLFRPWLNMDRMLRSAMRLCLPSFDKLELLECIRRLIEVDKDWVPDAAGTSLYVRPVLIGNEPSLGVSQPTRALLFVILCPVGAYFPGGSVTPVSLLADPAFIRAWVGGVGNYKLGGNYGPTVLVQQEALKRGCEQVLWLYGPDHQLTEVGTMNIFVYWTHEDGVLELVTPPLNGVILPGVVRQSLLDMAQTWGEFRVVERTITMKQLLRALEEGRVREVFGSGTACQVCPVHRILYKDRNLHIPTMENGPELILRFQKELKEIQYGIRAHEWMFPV
The experiment in a line: BCAT2 in vitro enzyme inhibition assay (resazurin/diaphorase-coupled fluorescence). It is filed as biochemical. The method, boiled down: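 Coupled fluorescence readout: glutamate formed from L-leucine/α-ketoglutarate transamination drives GDH/NAD/diaphorase reduction of resazurin (Ex 540/Em 590). Human BCAT2 was first exposed 1 h at room temperature to compound, top final 100 μM in 3-fold, 10-point series; substrate reaction ran 1 h before SDS quench, in technical duplicate with DMSO max and enzyme-free min controls.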

The target of experiment [2] is T2, hBCAT1 (Homo sapiens, UniProt P54687).
T2 sequence (P54687 1-386): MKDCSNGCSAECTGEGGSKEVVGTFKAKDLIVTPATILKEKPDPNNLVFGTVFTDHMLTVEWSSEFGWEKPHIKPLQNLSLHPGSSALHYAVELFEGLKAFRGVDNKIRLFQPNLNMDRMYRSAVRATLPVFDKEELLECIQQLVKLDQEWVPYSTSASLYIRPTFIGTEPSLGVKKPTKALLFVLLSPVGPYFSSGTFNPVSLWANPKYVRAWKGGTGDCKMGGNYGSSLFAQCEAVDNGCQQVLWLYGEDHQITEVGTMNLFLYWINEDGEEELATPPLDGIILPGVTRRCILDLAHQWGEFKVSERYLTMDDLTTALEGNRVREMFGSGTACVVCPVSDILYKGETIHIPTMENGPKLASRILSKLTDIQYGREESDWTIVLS
Put plainly: BCAT1 in vitro enzyme inhibition assay (resazurin/diaphorase-coupled fluorescence). It is filed as biochemical. Put shortly:
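Ten-point, 3-fold compound series (top final 100 μM, delivered 1:50 from 50× DMSO stocks) tested against hBCAT1. Inhibition detected via diaphorase-coupled resazurin fluorescence, duplicate wells, with values from repeated runs averaged.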
Background: Resazurin is reduced to fluorescent resorufin, in cell work by metabolically active cells.

Experiment [3] addresses T1, BCAT2. The experiment in a line: BCAT2 in vitro cell inhibition using engineered A549 cells (KMV cell assay, 13C6-KMV by LC-MS/MS). The experiment is classed as cell-based. Further details: The result was an engineered A549 cell line that expressed endogenous BCAT2; endogenous in cells; host or cells: A549 cells with MUT and BCAT1 knocked out by CRISPR/CAS9.

`O=C(N[C@H]1CCC[C@@H](n2c(-c3ccccc3F)nc3cnc(-c4n[nH]c(=O)o4)cc32)C1)c1ncc(Cl)s1` [Example 203, 5-chloro-N-((1S,3R)-3-(2-(2-fluorophenyl)-6-(5-oxo-4,5-dihydro-1,3,4-oxadiazol-2-yl)-1H-imidazo[4,5-c]pyridin-1-yl)cyclohexyl)thiazole-2-carboxamide]: the IC50 in experiment [1] is not above 100 nM; in experiment [2], less than 500 nM; in experiment [3], 100 to 500 nM.

As for `O=C(N[C@H]1CCC[C@@H](n2c(-c3ccccc3F)nc3cnc(-n4nccn4)cc32)C1)c1ccc(Br)s1` [Example 15, 5-bromo-N-((1S,3R)-3-(2-(2-fluorophenyl)-6-(2H-1,2,3-triazol-2-yl)-1H-imidazo[4,5-c]pyridin-1-yl)cyclohexyl)thiophene-2-carboxamide], the figures for the IC50 in experiment [1], in experiment [2] and in experiment [3] were not above 100 nM, less than 500 nM and not above 100 nM, respectively.

Consider `O=C(N[C@@H]1C[C@H](n2c(-c3ccccc3F)nc3cnc(-c4nc[nH]n4)cc32)CS(=O)(=O)C1)c1ccc(Cl)s1` [Example 456, 5-chloro-N-((3R,5S)-5-(2-(2-fluorophenyl)-6-(1H-1,2,4-triazol-3-yl)-1H-imidazo[4,5-c]pyridin-1-yl)-1,1-dioxidotetrahydro-2H-thiopyran-3-yl)thiophene-2-carboxamide], for which the values for the IC50 in experiment [1], in experiment [2] and in experiment [3] were not above 100 nM, less than 500 nM and more than 1000 nM, respectively.

Take `O=C(N[C@H]1CCC[C@@H](n2c(-c3ccccc3F)nc3cnc(-c4ncco4)cc32)[C@@H]1O)c1ncc(Cl)s1` [Example 248, 5-chloro-N-((1S,2R,3R)-3-(2-(2-fluorophenyl)-6-(oxazol-2-yl)-1H-imidazo[4,5-c]pyridin-1-yl)-2-hydroxycyclohexyl)thiazole-2-carboxamide]: the IC50 in experiment [1] was not above 100 nM; in experiment [2], less than 500 nM; in experiment [3], not above 100 nM.

Turning to `CC(C)Cc1nc2cnc(-c3ncn(C)n3)cc2n1[C@@H]1CCC[C@H](NC(=O)c2ncc(Cl)s2)C1` [Example 358, 5-chloro-N-((1S,3R)-3-(2-isobutyl-6-(1-methyl-1H-1,2,4-triazol-3-yl)-1H-imidazo[4,5-c]pyridin-1-yl)cyclohexyl)thiazole-2-carboxamide], the IC50 in experiment [1] was not above 100 nM; in experiment [2] it was 500 to 1000 nM; in experiment [3], 100 to 500 nM.

Consider `CC(C)Cc1nc2cnc(-c3ncccn3)cc2n1C1CCCC(NC(=O)c2ncc(Cl)s2)C1O` (stereo not drawn) [Example 383, 5-chloro-N-(2-hydroxy-3-(2-isobutyl-6-(pyrimidin-2-yl)-1H-imidazo[4,5-c]pyridin-1-yl)cyclohexyl)thiazole-2-carboxamide], for which the figures for the IC50 in experiment [1], in experiment [2] and in experiment [3] were not above 100 nM, less than 500 nM and 100 to 500 nM, respectively.

Regarding `CNc1cc2c(cn1)nc(-c1ccccc1F)n2[C@@H]1C[C@@H](O)C[C@H](NC(=O)c2ncc(Cl)s2)C1` [Example 274, 5-chloro-N-((1R,3S,5S)-3-(2-(2-fluorophenyl)-6-(methylamino)-1H-imidazo[4,5-c]pyridin-1-yl)-5-hydroxycyclohexyl)thiazole-2-carboxamide], the values for the concentration for half-maximal inhibition (IC50) in experiment [1], in experiment [2] and in experiment [3] were not above 100 nM, less than 500 nM and 500 to 1000 nM, respectively.

In the case of `Cc1cn[nH]c1-c1cc2c(cn1)nc(-c1ccccc1F)n2[C@@H]1CCC[C@H](NC(=O)c2ncc(Cl)s2)C1` [Example 186, 5-chloro-N-((1S,3R)-3-(2-(2-fluorophenyl)-6-(4-methyl-1H-pyrazol-5-yl)-1H-imidazo[4,5-c]pyridin-1-yl)cyclohexyl)thiazole-2-carboxamide], the IC50 was not above 100 nM in experiment [1], less than 500 nM in experiment [2] and not above 100 nM in experiment [3].

In the case of `O=C(N[C@H]1CCC[C@@H](n2c(-c3ccccc3F)nc3cnc(-c4nc[nH]n4)cc32)[C@@H]1O)c1ccc(Cl)s1` [Example 399, 5-chloro-N-((1S,2R,3R)-3-(2-(2-fluorophenyl)-6-(1H-1,2,4-triazol-3-yl)-1H-imidazo[4,5-c]pyridin-1-yl)-2-hydroxycyclohexyl)thiophene-2-carboxamide], the IC50 in experiment [1] was not above 100 nM; in experiment [2], less than 500 nM; in experiment [3], not above 100 nM.

Regarding `Cc1coc(-c2cc3c(cn2)nc(-c2ccccc2F)n3C2CC(NC(=O)c3ncc(Cl)s3)CN(C)C2)n1` (stereo not drawn) [Example 130, 5-chloro-N-(5-(2-(2-fluorophenyl)-6-(4-methyloxazol-2-yl)-1H-imidazo[4,5-c]pyridin-1-yl)-1-methylpiperidin-3-yl)thiazole-2-carboxamide], the IC50 in experiment [1] was not above 100 nM; in experiment [2], 1000 to 5000 nM; in experiment [3] it was 100 to 500 nM.

With `C#Cc1cnc(C(=O)N[C@H]2CCC[C@@H](n3c(-c4ncccc4F)nc4cnc(-n5cncn5)cc43)C2)s1` [Example 29, 5-ethynyl-N-((1S,3R)-3-(2-(3-fluoropyridin-2-yl)-6-(1H-1,2,4-triazol-1-yl)-1H-imidazo[4,5-c]pyridin-1-yl)cyclohexyl)thiazole-2-carboxamide], the IC50 in experiment [1] is not above 100 nM; in experiment [2], 500 to 1000 nM; in experiment [3] it was 100 to 500 nM.

Regarding `O=C(N[C@H]1CCC[C@@H](n2c(-c3ccccn3)nc3cnc(-c4nc[nH]n4)cc32)C1)c1ncc(C(F)F)s1` [Example 53, 5-(difluoromethyl)-N-((1S,3R)-3-(2-(pyridin-2-yl)-6-(1H-1,2,4-triazol-3-yl)-1H-imidazo[4,5-c]pyridin-1-yl)cyclohexyl)thiazole-2-carboxamide], the IC50 was not above 100 nM in experiment [1], less than 500 nM in experiment [2] and not above 100 nM in experiment [3].

Turning to `O=C(N[C@H]1CCC[C@@H](n2c(-c3ccccc3F)nc3cnc(-c4ccn[nH]4)cc32)C1)c1ncc(C(F)F)s1` [Example 77, 5-(difluoromethyl)-N-((1S,3R)-3-(2-(2-fluorophenyl)-6-(1H-pyrazol-5-yl)-1H-imidazo[4,5-c]pyridin-1-yl)cyclohexyl)thiazole-2-carboxamide], the IC50 was not above 100 nM in experiment [1], less than 500 nM in experiment [2] and not above 100 nM in experiment [3].

On to `CC1(O)[C@@H](NC(=O)c2ncc(Cl)s2)CCC[C@H]1n1c(-c2ccccc2F)nc2cnc(-c3nc[nH]n3)cc21` (single isomer, unassigned) [Example 233], for which the IC50 is not above 100 nM in experiment [1], less than 500 nM in experiment [2] and 100 to 500 nM in experiment [3].

In the case of `O=C(N[C@H]1CCC[C@@H](n2c(-c3ccccn3)nc3cnc(-n4cccn4)cc32)C1)c1ccc(Br)s1` [Example 30, N-((1S,3R)-3-(6-(1H-pyrazol-1-yl)-2-(pyridin-2-yl)-1H-imidazo[4,5-c]pyridin-1-yl)cyclohexyl)-5-bromothiophene-2-carboxamide], the IC50 in experiment [1] was not above 100 nM; in experiment [2], 1000 to 5000 nM; in experiment [3], 500 to 1000 nM.

`CC(=O)N1CC(NC(=O)c2ncc(C(F)F)s2)CC(n2c(-c3ccccc3F)nc3cnc(-c4ncco4)cc32)C1` (stereo not drawn) [Example 126, N-(1-acetyl-5-(2-(2-fluorophenyl)-6-(oxazol-2-yl)-1H-imidazo[4,5-c]pyridin-1-yl)piperidin-3-yl)-5-(difluoromethyl)thiazole-2-carboxamide]: the IC50 in experiment [1] was not above 100 nM; in experiment [2], less than 500 nM; in experiment [3] it was not above 100 nM.

As for `O=C(NC1CCCC(n2c(-c3ncccc3F)nc3cnc(-c4nnco4)cc32)C1)c1ccc(Br)s1` (stereo not drawn) [Example 2, 5-bromo-N-(3-(2-(3-fluoropyridin-2-yl)-6-(1,3,4-oxadiazol-2-yl)-1H-imidazo[4,5-c]pyridin-1-yl)cyclohexyl)thiophene-2-carboxamide], the IC50 in experiment [1] was not above 100 nM; in experiment [2], 500 to 1000 nM; in experiment [3], 100 to 500 nM.

As for `CO[C@H]1C[C@H](NC(=O)c2ccc(Cl)s2)C[C@H](n2c(CC(C)C)nc3cnc(-c4ncccn4)cc32)C1` (single isomer, unassigned) [Example 437], the IC50 was not above 100 nM in experiment [1], less than 500 nM in experiment [2] and not above 100 nM in experiment [3].

Broadly, the IC50 is the concentration that gives 50% inhibition.
